Measured values as given in PMC4728507, “Bioactive Polycyclic Quinones from Marine Streptomyces sp. 182SMLY” (Marine Drugs, 2016).
In brackets after ≈: the same amount, converted by molar mass. Like-named read-outs stand apart in the source and are kept apart here.

Experiments:
glioma SHG-44 cells = test: SRB assay, proliferation of glioma SHG-44 cells; type: cell-based; conditions: Homo sapiens, 72 h, read-out: IC50 inhibiting the proliferation of cells, SHG-44
Method: (§1) The compounds 1 and 2 were assayed for their activities inhibiting the proliferation of glioma C6, U251, U87-MG, and SHG-44 cells using the sulforhodamine B (SRB) assay. The SRB assay is a method that measures total cellular protein content for evaluating the activity of tested compounds against the proliferation of tumor cells. Doxorubicin (DOX) was used as a positive control. Glioma cells were treated with tested compounds for 72 h at different concentrations. […] N-acetyl-N-demethylmayamycin (1) and streptoanthraquinone A (2) were also assayed for their activity against normal human astrocytes (HA). The initial assay was conducted on the concentrations from 0.35 to 7.0 μM for 1 and on those from 1.65 to 16.5 μM for 2. The cell viability of HA cells from each tested concentration of both compounds was 100%.
(§2) Human glioma U251 and rat glioma C6 cells were cultured in DMEM (Dulbecco’s Modified Eagle Medium, Gibco, Thermo Fisher Scientific Inc., Waltham, MA, USA) with 10% FBS (Fetal Bovine Serum, PAA Laboratories Inc., Dartmouth, MA, USA), human glioma SHG-44 in RPMI-1640 Medium (Roswell Park Memorial Institution 1640 Medium, Gibco, Thermo Fisher Scientific Inc., Waltham, MA, USA), human glioma U87-MG cells in MEM (Minimum Essential Medium, Gibco), and normal human astrocytes (HA) in AM (Astrocyte Medium, ScienCell, Cat. No. 1801). All cells were incubated at 37 °C in a humidified incubator with 5% CO2. Cells after the third generation were used for experiment.
(§3) The SRB assay was used to evaluate the activity of the isolated compounds in inhibiting the proliferation of glioma U87-MG, U251, SHG-44, and C6 cells. Doxorubicin (DOX) was used as the positive control. Briefly, glioma cells were plated in a 96-well plate and then treated with different concentrations of tested compound after cells adhesion for 24 h. […] After dried, dye was dissolved in a 10 mM Tris buffer and measured at 515 nm on a microplate reader (BioTech, Winooski, VT, USA).

[1] = test system: Escherichia coli ATCC 25922; test: Antimicrobial assay, micro broth dilution, E. coli; type: cell-based; conditions: ATCC 25922, micro broth dilution
Method: (§4) Compounds 1 and 2 were also determined for their activities against methicillin-resistant Staphylococcus aureus ATCC 43300 and Escherichia coli ATCC 25922.
(§5) The micro broth dilution method as described in the previous report was used to determine the antimicrobial activity of the isolated compounds against the methicillin-resistant Staphylococcus aureus ATCC 43300 and Escherichia coli ATCC 25922. Norfloxacin, a broad-spectrum antibiotic against both Gram-positive and Gram-negative bacteria, was used as the positive control.

[2] = test system: methicillin-resistant Staphylococcus aureus ATCC 43300; test: Antimicrobial assay, micro broth dilution, MRSA; type: cell-based; conditions: ATCC43300, ATCC 43300, micro broth dilution, read-out: MIC, growth of methicillin-resistant S. aureus
Method: as §4, §5

glioma U87-MG cells = test: SRB assay, proliferation of glioma U87-MG cells; type: cell-based; conditions: Homo sapiens, U-87 MG, 72 h, read-out: IC50 inhibiting the proliferation of cells, U87-MG
Method: as §1, §2, §3

[3] = Activity against normal human astrocytes (HA); type: cell-based; conditions: human, normal human astrocytes (HA), initial assay, read-out: Cell viability of HA cells
Method: as §1, §2

[4] = test system: normal human astrocytes (HA); test: Activity against normal human astrocytes (HA); type: cell-based; conditions: Homo sapiens, Astrocyte; HA cells, second assay in higher concentrations
Method: as §1, §2

glioma U251 cells [5] = test: Apoptosis in glioma U251 cells, flow cytometry with Annexin V-FITC/PI double staining; type: cell-based, human; conditions: 36 h, control 3.58%
Method: N-acetyl-N-demethylmayamycin (1) and streptoanthraquinone A (2) were further tested for their ability to induce apoptosis in glioma U251 cells by flow cytometry using Annexin V-FITC/PI double staining.
Figure 6 N-acetyl-N-demethylmayamycin (1) and streptoanthraquinone A (2) induced apoptosis in the glioma U251 cells quantified by cytometric analysis. U251 cells were treated with 1 (0.7 μM) or 2 (3.3 μM) for 36 h and then stained with Annexin-V FITC and PI double staining (B1: necrotic cells; B2: late apoptotic cells; B3: normal glioma cells; B4: early apoptotic cells). TEXT PRINTED IN THE PICTURE: 1: U251: B1: 2.87% (0.7 μM); U251: B2: 31.39% (0.7 μM); U251: B3: 54.79% (0.7 μM); U251: B4: 10.95% (0.7 μM) | 2: U251: B1: 3.00% (3.3 μM); U251: B2: 29.85% (3.3 μM); U251: B3: 56.75% (3.3 μM); U251: B4: 10.40% (3.3 μM) DOUBTS OF THE COPYIST ABOUT THIS PICTURE: 1, B3: 54.79% is partly covered by plot points, digits not certain / 2, B3: 56.75% is partly covered by plot points, digits not certain / The CON (untreated control) plot prints B1 0.28%, B2 2.17%, B3 96.14% (partly covered by plot points, 96.14 or 96.44), B4 1.41%; left out of lines because it is not a substance

[6] = test system: glioma C6, U251, U87-MG, and SHG-44 cells; test: SRB assay, four glioma cell lines (summary ranges); type: cell-based; conditions: 72 h, read-out: IC50 range over four tested glioma cell lines
Method: as §1
The SRB assay was used to evaluate the activity of the isolated compounds in inhibiting the proliferation of glioma U87-MG, U251, SHG-44, and C6 cells. Doxorubicin (DOX) was used as the positive control. Briefly, glioma cells were plated in a 96-well plate and then treated with different concentrations of tested compound after cells adhesion for 24 h. After 72 h of the treatment, cells were fixed with 50 μL of a 10% cold TCA solution for 1 h at 4 °C, washed with distilled water five times, and then dried at room temperature. The dried cells were stained with 50 μL of 0.4% SRB for ten minutes and rinsed with a 1% acetic acid solution five times. After dried, dye was dissolved in a 10 mM Tris buffer and measured at 515 nm on a microplate reader (BioTech, Winooski, VT, USA).

glioma U251 cells [7] = test: SRB assay, proliferation of glioma U251 cells; type: cell-based; conditions: Homo sapiens, U-251, 72 h, read-out: IC50 inhibiting the proliferation of cells, U251
Method: as §1, §2, §3

glioma C6 cells = test: SRB assay, proliferation of glioma C6 cells; type: cell-based; conditions: Rattus norvegicus, 72 h, read-out: IC50 inhibiting the proliferation of cells, C6
Method: as §1, §2, §3

| SMILES | IC50 (glioma SHG-44 cells) [µM] | MIC, growth of E. coli [1] | MIC [2] [µM] | IC50 (glioma U87-MG cells) [µM] | viability ([3]; each tested concentration from 0.35 to 7.0 μM) [%] | IC50 [4] [µM] | Increase of total apoptotic cells (early and late) compared to the control (glioma U251 cells [5]; U251, 0.7 μM) [%] | IC50 [6] [µM] | IC50 (glioma U251 cells [7]) [µM] | IC50 (glioma C6 cells) [µM] | viability ([3]; each tested concentration from 1.65 to 16.5 μM) [%] | Increase of total apoptotic cells (early and late) compared to the control (glioma U251 cells [5]; U251, 3.3 μM) [%] | MIC ([1]; Escherichia coli, ATCC25922, read-out: MIC, growth of E. coli) [µM] |
| --- | --- | --- | --- | --- | --- | --- | --- | --- | --- | --- | --- | --- | --- |
| CC(=O)NC1CC(c2c(O)c3c(c4c(O)cc(C)cc24)C(=O)c2cccc(O)c2C3=O)OC(C)C1O (centres unmarked) [Compound 1, N-acetyl-N-demethylmayamycin] | 3.9 ± 0.4 | no activity | 20 (≈ 9.83 µg/mL) | 1.4 ± 0.1 | 100 | 25 ± 1.3 | 38.76 | 0.5 to 3.9 | 0.7 ± 0.2 | 0.5 ± 0.1 | – | – | – |
| CC(=O)OC1c2c3c(c(O)c4c2C(Cc2c(O)cc(C)cc2-4)OC1C)C(=O)c1cccc(O)c1C3=O (centres unmarked) [Compound 2, streptoanthraquinone A] | 6.5 ± 1.1 | no activity | – | 4.6 ± 0.3 | – | > 100 | – | 3.3 to 7.3 | 3.3 ± 0.3 | 7.3 ± 1.4 | 100 | 36.67 | – |
| COc1cccc2c1C(=O)c1c(O)c3c(c(O)c1C2=O)C[C@@](O)(C(=O)CO)C[C@@H]3O[C@H]1C[C@H](N)[C@H](O)[C@H](C)O1 [Doxorubicin (DOX), Doxorubicin, reference compound] | 9 ± 0.8 | – | – | 0.9 ± 0.1 | – | – | – | 0.9 to 9 | 6.7 ± 1.1 | 1 ± 0.1 | – | – | – |
| CCn1cc(C(=O)O)c(=O)c2cc(F)c(N3CCNCC3)cc21 [norfloxacin, reference compound] | – | – | 62.6 (≈ 20 µg/mL) | – | – | – | – | – | – | – | – | – | 31.3 (≈ 10 µg/mL) |
